Holding throughout (type): cell-based
For one experiment, the system named is H526 cell line. Kind of experiment: Cell viability assay for NCI-H526 cell line (EZ-Cytox). Conditions: Homo sapiens, NCI-H526, 120 h; H526 cells, 3-fold dilutions 3000 nM to 0.46 nM, 5 days. As to the method: (1) Culture of NCI-H526 Cell Line
(2) Treatment of Compounds of the Present Invention and Method of Cell Viability Assay
After treating the compound to each well to make the total volume of 200 μL, it was cultured in a CO2 incubator (Thermo Fisher Science, Cat. No. 4111) for 5 days.
The absorbance of the completely cultured sample was measured by setting the wavelength of a plate reader (BMG Labtech, CLARIOstar Plus) to […], and was measured after shaking for 3 minutes in a plate reader before measurement.
In Table 3, Activity represents IC50 value of each Exemplary Compound treatment group to H526 cell line (A: <30 nM, B: <50 nM, C: <100 nM, D: <200 nM, E: <400 nM).

For the next experiment, the system named is MRC-5 cell line. Nature of the experiment: Cell viability assay for MRC-5 cell line (EZ-Cytox cytotoxicity experiment). The settings on record: Homo sapiens, MRC5, 120 h, MRC-5 normal cell line, 5 days. As to the method: 4. Cell Viability Assay for MRC-5 Cell Line
(1) Culture of MRC-5 Cell Line
Passage of cultured cells was maintained within P15.
(2) Treatment of Compounds of the Present Invention
Then, it was cultured in 37° C.
(3) Cytotoxicity Experiment
CO2 incubator for 4 hours.

In the next experiment the target is T1, PLK1 (Homo sapiens, UniProt P53350).
T1 construct: endogenous in cells; host or cells: HeLa LgBit (Plk1-HiBit KI): HeLa stably expressing LgBit, with HiBit knocked in at the endogenous Plk1 locus by CRISPR/Cas9
T1 sequence (P53350 whole entry): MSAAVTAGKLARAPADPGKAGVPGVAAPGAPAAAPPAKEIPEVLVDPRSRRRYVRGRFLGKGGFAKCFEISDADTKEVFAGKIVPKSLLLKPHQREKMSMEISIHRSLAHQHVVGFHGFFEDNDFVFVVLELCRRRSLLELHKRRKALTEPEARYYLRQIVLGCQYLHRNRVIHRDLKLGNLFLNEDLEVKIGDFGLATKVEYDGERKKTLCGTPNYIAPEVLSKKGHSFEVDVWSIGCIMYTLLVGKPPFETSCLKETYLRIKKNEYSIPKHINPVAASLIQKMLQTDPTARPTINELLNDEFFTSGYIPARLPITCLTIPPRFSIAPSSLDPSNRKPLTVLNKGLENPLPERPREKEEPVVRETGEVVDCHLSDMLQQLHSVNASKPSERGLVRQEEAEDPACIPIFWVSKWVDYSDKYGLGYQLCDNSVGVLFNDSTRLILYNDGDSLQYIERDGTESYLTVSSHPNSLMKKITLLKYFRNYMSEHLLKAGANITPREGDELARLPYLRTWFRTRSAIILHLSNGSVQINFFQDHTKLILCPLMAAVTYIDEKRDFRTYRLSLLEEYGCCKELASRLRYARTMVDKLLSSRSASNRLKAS
Kind of experiment: Luciferase assay for PLK1 in HeLa LgBit (Plk1-HiBit KI) cell line. Conditions: compound 300 nM, luminescence after 9 hours. As to the method: 2. Luciferase Assay for PLK1
(1) Preparation and Culture of HeLa LgBit (Plk1-HiBit KI) Cell Line
A HeLa cell line in which the LgBit vector was transfected and expressed stably was prepared. Then, after constructing gRNA and donor to express the HiBit amino acid sequence behind the C-terminal of the Plk1 gene, which was inherent in the cell, it was inserted into the cell together with a vector capable of expressing CRISPR/Cas9. Only the cells in which the insertion was completed and knock-in had progressed were selected, sub-cultured and used.
(2) Treatment of Compounds of the Present Invention and Method of Luciferase Assay
In the case of HeLa LgBit (Plk1-HiBit KI), the compounds were treated after being released after thymidine block, and the process was as follows. Thymidine (Sigma-Aldrich Cat. No. T9250-5G) was completely dissolved in DW and used in the experiment. For thymidine block, the products were treated with 2 mM of thymidine and then incubated for 24 hours. For release and chemical treatment, the medium was suctioned and washed with 1×PBS. TrypLE™ was added and incubated in 37° C. CO2 incubator for 5 min. Cells neutralized by adding complete media were counted through a counter. For each well of a 96-well culture plate (SPL), 3.3×10^4 cells and a total medium volume of 150 μL were seeded and incubated in a CO2 incubator.
Each cell line was incubated in a CO2 incubator for 18 hours, and Endurazine was added to each well to make up 4% of the total volume. After adding the compound of the present invention in a 96-well white plate (SPL) to a concentration of 300 nM, the wavelength of the plate reader (BMG Labtech, CLARIOstar Plus) was set to […], and then the luminescence was tracked in real time.
In Table 2, Activity represents the ratio of the luminescence value of each Exemplary Compound treatment group to DMSO treatment group (+++: <0.3, ++<0.6, +<0.7).
For orientation: The HiBiT peptide binds its large partner to form an active luciferase.

The mark [1] stands for this setting: highest concentration 10000 nM, N.D. = no cytotoxicity until 10 μM, read-out: Activity: IC50 value to MRC-5 cell line, N.D. cells.
[2] abbreviates: 3-fold dilutions 10000 nM to 1.52 nM, Exemplary Compounds, numeric values, read-out: Activity: IC50 value (nM) to MRC-5 cell line.

The structures appear in SMILES notation. Like-named read-outs stand apart in the source and are kept apart here. Bounds are passed on as bounds.

The IC50 is the concentration that gives 50% inhibition. As to `COc1cc(C(=O)NC2CCN(C(=O)CCN3CCN(c4cccc(N(C)C5CCC(=O)NC5=O)c4)CC3)CC2)ccc1Nc1ncc2c(n1)N(C1CCCC1)CC(F)(F)C(=O)N2C` (stereo not drawn) [Compound 15, 4-((9-cyclopentyl-7,7-difluoro-5-methyl-6-oxo-6,7,8,9-tetrahydro-5H-pyrimido[4,5-b][1,4]diazepin-2-yl)amino)-N-(1-(3-(4-(3-((2,6-dioxopiperidin-3-yl)(methyl)amino)phenyl)piperazin-1-yl)propanoyl)piperidin-4-yl)-3-methoxybenzamide], the IC50 is less than 0.05 µM with H526 cell line and more than 10000 nM with MRC-5 cell line (setting [1]). For the same compound, the “Activity: ratio of the luminescence value of each Exemplary Compound treatment group to DMSO treatment group” value (shortened to “Activity: ratio”) on PLK1 is “++ (++<0.6)”.

`COc1cc(C(=O)NN2CCC(CN3CCN(c4ccc(NC5CCC(=O)NC5=O)cc4Cl)CC3)CC2)ccc1Nc1ncc2c(n1)N(C(C)C)CC(F)(F)C(=O)N2C` (stereo not drawn) [Compound 19, N-(4-((4-(2-chloro-4-((2,6-dioxopiperidin-3-yl)amino)phenyl)piperazin-1-yl)methyl)piperidin-1-yl)-4-((7,7-difluoro-9-isopropyl-5-methyl-6-oxo-6,7,8,9-tetrahydro-5H-pyrimido[4,5-b][1,4]diazepin-2-yl)amino)-3-methoxybenzamide]: the IC50 with H526 cell line is less than 0.05 µM; in the experiment on MRC-5 cell line (setting [1]) it was more than 10000 nM. The “Activity: ratio” value at PLK1 was “+ (+<0.7)”.

Consider `COc1cc(C(=O)NC2CCN(CC3CN(c4ccc(NC5CCC(=O)NC5=O)cc4F)C3)CC2)ccc1Nc1ncc2c(n1)N(C(C)C)CC(F)(F)C(=O)N2C` (stereo not drawn) [Compound 20, 4-((7,7-difluoro-9-isopropyl-5-methyl-6-oxo-6,7,8,9-tetrahydro-5H-pyrimido[4,5-b][1,4]diazepin-2-yl)amino)-N-(1-((1-(4-((2,6-dioxopiperidin-3-yl)amino)-2-fluorophenyl)azetidin-3-yl)methyl)piperidin-4-yl)-3-methoxybenzamide], for which the IC50 is less than 0.05 µM in the experiment with H526 cell line and more than 10000 nM with MRC-5 cell line (setting [1]). At PLK1, the “Activity: ratio” value is “++ (++<0.6)”.

Turning to `COc1cc(C(=O)NC2CCC(N(C)CC3CCN(c4ccc(NC5CCC(=O)NC5=O)cc4F)CC3)CC2)ccc1Nc1ncc2c(n1)N(C1CCCC1)CC(F)(F)C(=O)N2C` (stereo not drawn) [Compound 34, 4-((9-cyclopentyl-7,7-difluoro-5-methyl-6-oxo-6,7,8,9-tetrahydro-5H-pyrimido[4,5-b][1,4]diazepin-2-yl)amino)-N-((1r,4r)-4-(((1-(4-((2,6-dioxopiperidin-3-yl)amino)-2-fluorophenyl)piperidin-4-yl)methyl)(methyl)amino)cyclohexyl)-3-methoxybenzamide], the values for the IC50 with H526 cell line and in the experiment with MRC-5 cell line (setting [1]) were less than 0.03 µM and more than 10000 nM, respectively. Further, at PLK1, the “Activity: ratio” value is reported as “+++ (+++: <0.3)”.

On to `COc1cc(C(=O)NC2CC3(CCN(CC4CCN(c5c(F)cc(N(C)C6CCC(=O)NC6=O)cc5F)CC4)CC3)C2)ccc1Nc1ncc2c(n1)N(C(C)C)CC(F)(F)C(=O)N2C` (stereo not drawn) [Compound 29, 4-((7,7-difluoro-9-isopropyl-5-methyl-6-oxo-6,7,8,9-tetrahydro-5H-pyrimido[4,5-b][1,4]diazepin-2-yl)amino)-N-(7-((1-(4-((2,6-dioxopiperidin-3-yl)(methyl)amino)-2,6-difluorophenyl)piperidin-4-yl)methyl)-7-azaspiro[3.5]nonan-2-yl)-3-methoxybenzamide], for which the IC50 is less than 0.05 µM in the experiment on H526 cell line and 18500 nM in the experiment with MRC-5 cell line (setting [2]). In addition, the “Activity: ratio” value at PLK1 is “++ (++<0.6)”.

Regarding `COc1cc(C(=O)NN2CCC(CN3CCN(c4cccc(C(=O)NC5CCC(=O)NC5=O)c4)CC3)CC2)ccc1Nc1ncc2c(n1)N(C1CCCC1)CC(F)(F)C(=O)N2C` (stereo not drawn) [Compound 9, 4-((9-cyclopentyl-7,7-difluoro-5-methyl-6-oxo-6,7,8,9-tetrahydro-5H-pyrimido[4,5-b][1,4]diazepin-2-yl)amino)-N-(4-((4-(3-((2,6-dioxopiperidin-3-yl)carbamoyl)phenyl)piperazin-1-yl)methyl)piperidin-1-yl)-3-methoxybenzamide], the IC50 is less than 0.05 µM with H526 cell line and more than 10000 nM in the experiment on MRC-5 cell line (setting [1]). Further, the “Activity: ratio” value on PLK1 is on record as “++ (++<0.6)”.

Take `COc1cc(C(=O)NC2CCN(C(=O)CCN3CCN(c4cccc(NC5CCC(=O)NC5=O)c4)CC3)CC2)ccc1Nc1ncc2c(n1)N(C1CCCC1)CC(F)(F)C(=O)N2C` (stereo not drawn) [Compound 14, 4-((9-cyclopentyl-7,7-difluoro-5-methyl-6-oxo-6,7,8,9-tetrahydro-5H-pyrimido[4,5-b][1,4]diazepin-2-yl)amino)-N-(1-(3-(4-(3-((2,6-dioxopiperidin-3-yl)amino)phenyl)piperazin-1-yl)propanoyl)piperidin-4-yl)-3-methoxybenzamide]: the figures for the IC50 with H526 cell line and in the experiment with MRC-5 cell line (setting [1]) were less than 0.03 µM and more than 10000 nM, respectively. For the same compound, the “Activity: ratio” value at PLK1 is listed as “++ (++<0.6)”.

As to `COc1cc(C(=O)NC2CC3(CCN(CC4CCN(c5ccc(NC6CCC(=O)NC6=O)cc5F)CC4)CC3)C2)ccc1Nc1ncc2c(n1)N(C(C)C)CC(F)(F)C(=O)N2C` (stereo not drawn) [Compound 24, 4-((7,7-difluoro-9-isopropyl-5-methyl-6-oxo-6,7,8,9-tetrahydro-5H-pyrimido[4,5-b][1,4]diazepin-2-yl)amino)-N-(7-((1-(4-((2,6-dioxopiperidin-3-yl)amino)-2-fluorophenyl)piperidin-4-yl)methyl)-7-azaspiro[3.5]nonan-2-yl)-3-methoxybenzamide], the IC50 with H526 cell line is less than 0.03 µM; in the experiment on MRC-5 cell line (setting [2]) it was 23200 nM. Also, at PLK1, the “Activity: ratio” value is on record as “+++ (+++: <0.3)”.

As for `COc1cc(C(=O)NC2CCN(C(=O)CCN3CCN(c4cccc(C(=O)NC5CCC(=O)NC5=O)c4F)CC3)CC2)ccc1Nc1ncc2c(n1)N(C1CCCC1)CC(F)(F)C(=O)N2C` (stereo not drawn) [Compound 6, 3-(4-(3-(4-(4-((9-cyclopentyl-7,7-difluoro-5-methyl-6-oxo-6,7,8,9-tetrahydro-5H-pyrimido[4,5-b][1,4]diazepin-2-yl)amino)-3-methoxybenzamido)piperidin-1-yl)-3-oxopropyl)piperazin-1-yl)-N-(2,6-dioxopiperidin-3-yl)-2-fluorobenzamide], the IC50 is less than 0.05 µM with H526 cell line and more than 10000 nM in the experiment on MRC-5 cell line (setting [1]). For the same compound, on PLK1, the “Activity: ratio” value is “++ (++<0.6)”.

In the case of `COc1cc(C(=O)NC2CC3(CCN(CC4CCN(c5c(F)cc(NC6CCC(=O)NC6=O)cc5F)CC4)CC3)C2)ccc1Nc1ncc2c(n1)N(C(C)C)CC(F)(F)C(=O)N2C` (stereo not drawn) [Compound 25, 4-((7,7-difluoro-9-isopropyl-5-methyl-6-oxo-6,7,8,9-tetrahydro-5H-pyrimido[4,5-b][1,4]diazepin-2-yl)amino)-N-(7-((1-(4-((2,6-dioxopiperidin-3-yl)amino)-2,6-difluorophenyl)piperidin-4-yl)methyl)-7-azaspiro[3.5]nonan-2-yl)-3-methoxybenz amide], the IC50 is less than 0.03 µM with H526 cell line and 9240 nM in the experiment with MRC-5 cell line (setting [2]). Also, on PLK1, the “Activity: ratio” value is “+++ (+++: <0.3)”.

The values above are taken from patent US20250101025A1, “NOVEL PLK1 DEGRADATION INDUCING COMPOUND” (UPPTHERA, INC., priority 2021, published 2025).
